Measurements: ChEMBL document CHEMBL5532687, “A colorimetric assay adapted to fragment screening revealing aurones and chalcones as new arginase inhibitors” (RSC Med Chem, 2024)

Each compound was assayed against T1, Arginase-1 (Bos taurus, UniProt Q2KJ64) (assay: Inhibition of bovine liver arginase 1 using L-arginine as substrate incubated for 60 mins by OPA-p colorimetric assay).
T1 sequence (Q2KJ64 whole entry): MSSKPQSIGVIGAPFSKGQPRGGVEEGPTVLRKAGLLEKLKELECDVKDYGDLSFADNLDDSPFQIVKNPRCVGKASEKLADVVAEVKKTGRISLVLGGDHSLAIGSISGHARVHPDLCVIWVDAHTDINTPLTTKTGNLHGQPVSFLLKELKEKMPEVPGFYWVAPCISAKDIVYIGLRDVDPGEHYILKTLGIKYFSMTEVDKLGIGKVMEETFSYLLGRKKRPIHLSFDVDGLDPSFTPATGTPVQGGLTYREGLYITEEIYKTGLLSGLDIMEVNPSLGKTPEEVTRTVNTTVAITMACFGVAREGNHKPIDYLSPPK

| Structure (SMILES) | IC50 |
| --- | --- |
| O=C(/C=C/c1ccc(O)c(O)c1)c1cccc(O)c1 | 102 µM |
| O=C(/C=C/c1ccc(O)c(O)c1)c1ccccc1 | 351 µM |
| O=C(/C=C/c1ccc(O)c(O)c1)c1cc(O)cc(O)c1 | 136 µM |
| O=C(/C=C/c1ccc(O)c(O)c1)c1ccc(O)c(O)c1 | 91.1 µM |
| O=C1/C(=C/c2ccc(O)c(O)c2)Oc2c1ccc(O)c2O | 254 µM |
| O=C(/C=C/c1ccc(O)c(O)c1)c1ccc(O)cc1 | 354 µM |
| O=C(/C=C/c1ccc(O)cc1)c1ccc(O)c(O)c1 | 302 µM |
| N[C@@H](CSCCB(O)O)C(=O)O | 23 µM |
| Oc1ccc(Cl)cc1C1CC(c2ccco2)=NN1 (configuration not stated) | 720 µM |
| O=C1/C(=C/c2ccc(O)c(O)c2O)Oc2c1ccc(O)c2O | 532 µM |
| O=C1/C(=C/c2ccc(F)cc2)Oc2c1ccc(O)c2O | 507 µM |
| O=C1/C(=C/c2ccc(O)cc2)Oc2c1ccc(O)c2O | 1930 µM |
| O=C1/C(=C/c2cc(O)c(O)c(O)c2)Oc2c1ccc(O)c2O | 287 µM |
| O=C(/C=C/c1cc(O)c(O)c(O)c1)c1ccc(O)c(O)c1 | 764 µM |
| O=C(/C=C/c1ccccc1)c1ccc(O)c(O)c1 | 384 µM |
| O=C(/C=C/c1cc(O)cc(O)c1)c1ccc(O)c(O)c1 | 364 µM |
| O=C(/C=C/c1cccc(O)c1)c1ccc(O)c(O)c1 | 135 µM |
| O=C1/C(=C/c2cccc(O)c2)Oc2c1ccc(O)c2O | 120 µM |
| O=C1/C(=C/c2c(F)c(F)c(F)c(F)c2F)Oc2c1ccc(O)c2O | 1090 µM |
| O=C1/C(=C/c2ccc(F)c(F)c2)Oc2c1ccc(O)c2O | 312 µM |
| O=C1C(=Cc2ccc(O)c(O)c2)C(=O)c2ccccc21 | 537 µM |
| O=C(/C=C/c1ccc(O)c(O)c1)c1c(O)cc(O)cc1O [3,4,2',4',6'-PENTAHYDROXYCHALCONE] | 98 µM |
| O=C(/C=C/c1ccc(O)c(O)c1)c1ccc(O)cc1O [BUTEIN] | 1550 µM |
| O=C(/C=C/c1ccc(O)c(O)c1)O[C@@H]1C[C@](O)(C(=O)O)C[C@@H](O)[C@H]1O [CHLOROGENIC ACID] | 271 µM |
| Oc1cc(O)cc(/C=C/c2ccc(O)c(O)c2)c1 [PICEATANNOL] | 71.6 µM |
| Oc1cccc(O)c1O [PYROGALLOL] | 375 µM |
| O=C1/C(=C/c2ccc(O)c(O)c2)Oc2cc(O)ccc21 [SULFURETIN] | 437 µM |
